Measurements as given in ChEMBL document CHEMBL1201861, “Genomics of Drug Sensitity in Cancer screening data, Wellcome Trust Sanger Institute”.
Several values for one entry are separate records, joined by “and”; a condition that tells them apart may be missing. Equal entries are not always repeated. Where a SMILES comes first, the peptide text is derived from it. The star is where a group is joined. Cbz = O=C(OCc1ccccc1)*

Tests used:
Assay in all cases: cells
COLO-829 = assay type: functional, cell-based, Homo sapiens
Description: SANGER: Inhibition of human COLO-829 cell growth in a cell viability assay.

Calu-6 = assay type: functional, cell-based, Homo sapiens
Description: SANGER: Inhibition of human Calu-6 cell growth in a cell viability assay.

D-263MG = assay type: functional, cell-based, Homo sapiens
Description: SANGER: Inhibition of human D-263MG cell growth in a cell viability assay.

DEL = assay type: functional, cell-based, Homo sapiens
Description: SANGER: Inhibition of human DEL cell growth in a cell viability assay.

DJM-1 = assay type: functional, cell-based, Homo sapiens
Description: SANGER: Inhibition of human DJM-1 cell growth in a cell viability assay.

DMS-114 = assay type: functional, cell-based, Homo sapiens
ES6 = assay type: functional, cell-based; settings: Homo sapiens
Description: SANGER: Inhibition of human ES6 cell growth in a cell viability assay.

ES8 = assay type: functional, cell-based, Homo sapiens
Description: SANGER: Inhibition of human ES8 cell growth in a cell viability assay.

ETK-1 = assay type: functional, cell-based, Homo sapiens
Description: SANGER: Inhibition of human ETK-1 cell growth in a cell viability assay.

EW-1 = assay type: functional, cell-based, Homo sapiens
Description: SANGER: Inhibition of human EW-1 cell growth in a cell viability assay.

EW-18 = assay type: functional, cell-based, Homo sapiens; settings: read-out: IC50
Description: SANGER: Inhibition of human EW-18 cell growth in a cell viability assay.

GCIY = assay type: functional, cell-based, Homo sapiens
Description: SANGER: Inhibition of human GCIY cell growth in a cell viability assay.

HAL-01 = assay type: functional, cell-based, Homo sapiens
Description: SANGER: Inhibition of human HAL-01 cell growth in a cell viability assay.

IST-MES1 = assay type: functional, cell-based, Homo sapiens
Description: SANGER: Inhibition of human IST-MES1 cell growth in a cell viability assay.

IST-SL1 = assay type: functional, cell-based, Homo sapiens
Description: SANGER: Inhibition of human IST-SL1 cell growth in a cell viability assay.

KALS-1 = assay type: functional, cell-based, Homo sapiens; settings: read-out: IC50
Description: SANGER: Inhibition of human KALS-1 cell growth in a cell viability assay.

KM12 = assay type: functional, cell-based, Homo sapiens
Description: SANGER: Inhibition of human KM12 cell growth in a cell viability assay.

KNS-81-FD = assay type: functional, cell-based, Homo sapiens
Description: SANGER: Inhibition of human KNS-81-FD cell growth in a cell viability assay.

KS-1 = assay type: functional, cell-based; settings: Homo sapiens
Description: SANGER: Inhibition of human KS-1 cell growth in a cell viability assay.

L-363 = assay type: functional, cell-based, Homo sapiens
Description: SANGER: Inhibition of human L-363 cell growth in a cell viability assay.

L-428 = assay type: functional, cell-based, Homo sapiens
Description: SANGER: Inhibition of human L-428 cell growth in a cell viability assay.

LB831-BLC = assay type: functional, cell-based, Homo sapiens
Description: SANGER: Inhibition of human LB831-BLC cell growth in a cell viability assay.

LOX IMVI = assay type: functional, cell-based, Homo sapiens
Description: SANGER: Inhibition of human LOXIMVI cell growth in a cell viability assay.

LS-513 = assay type: functional, cell-based, Homo sapiens
Description: SANGER: Inhibition of human LS-513 cell growth in a cell viability assay.

MEG-01 = assay type: functional, cell-based, Homo sapiens
Description: SANGER: Inhibition of human MEG-01 cell growth in a cell viability assay.

MHH-PREB-1 = assay type: functional, cell-based, Homo sapiens
Description: SANGER: Inhibition of human MHH-PREB-1 cell growth in a cell viability assay.

MZ2-MEL = assay type: functional, cell-based, Homo sapiens
Description: SANGER: Inhibition of human MZ2-MEL cell growth in a cell viability assay.

MZ7-mel = assay type: functional, cell-based, Homo sapiens
Description: SANGER: Inhibition of human MZ7-mel cell growth in a cell viability assay.

Mo = assay type: functional, cell-based, Homo sapiens
Description: SANGER: Inhibition of human Mo-T cell growth in a cell viability assay.

NCI-H82 = assay type: functional, cell-based, Homo sapiens
Description: SANGER: Inhibition of human NCI-H82 cell growth in a cell viability assay.

ONS-76 = assay type: functional, cell-based, Homo sapiens
Description: SANGER: Inhibition of human ONS-76 cell growth in a cell viability assay.

OVCAR-4 = assay type: functional, cell-based, Homo sapiens
Description: SANGER: Inhibition of human OVCAR-4 cell growth in a cell viability assay.

QIMR-WIL = assay type: functional, cell-based, Homo sapiens
Description: SANGER: Inhibition of human QIMR-WIL cell growth in a cell viability assay.

RS4-11 = assay type: functional, cell-based, Homo sapiens
Description: SANGER: Inhibition of human RS4-11 cell growth in a cell viability assay.

Ramos-2G6-4C10 = assay type: functional, cell-based, Homo sapiens
Description: SANGER: Inhibition of human Ramos-2G6-4C10 cell growth in a cell viability assay.

SH-4 = assay type: functional, cell-based; settings: Homo sapiens
Description: SANGER: Inhibition of human SH-4 cell growth in a cell viability assay.

SK-NEP-1 = assay type: functional, cell-based, Homo sapiens
Description: SANGER: Inhibition of human SK-NEP-1 cell growth in a cell viability assay.

SW684 = assay type: functional, cell-based, Homo sapiens; settings: read-out: IC50
Description: SANGER: Inhibition of human SW684 cell growth in a cell viability assay.

A101D = assay type: functional, cell-based, Homo sapiens
Description: SANGER: Inhibition of human A101D cell growth in a cell viability assay.

BB65-RCC = assay type: functional, cell-based, Homo sapiens
Description: SANGER: Inhibition of human BB65-RCC cell growth in a cell viability assay.

C2BBe1 = assay type: functional, cell-based, Homo sapiens
Description: SANGER: Inhibition of human C2BBe1 cell growth in a cell viability assay.

C8166 = assay type: functional, cell-based, Homo sapiens
Description: SANGER: Inhibition of human C8166 cell growth in a cell viability assay.

TE-5 = assay type: functional, cell-based, Homo sapiens
Description: SANGER: Inhibition of human TE-5 cell growth in a cell viability assay.

TE-6 = assay type: functional, cell-based, Homo sapiens
Description: SANGER: Inhibition of human TE-6 cell growth in a cell viability assay.

TGBC1TKB = assay type: functional, cell-based, Homo sapiens
Description: SANGER: Inhibition of human TGBC1TKB cell growth in a cell viability assay.

TK-10 = assay type: functional, cell-based, Homo sapiens
Description: SANGER: Inhibition of human TK10 cell growth in a cell viability assay.

no-10 = assay type: functional, cell-based, Homo sapiens
Description: SANGER: Inhibition of human no-10 cell growth in a cell viability assay.

COLO-684 = assay type: functional, cell-based, Homo sapiens
Description: SANGER: Inhibition of human COLO-684 cell growth in a cell viability assay.

SCC-15 = assay type: functional, cell-based, Homo sapiens
Description: SANGER: Inhibition of human SCC-15 cell growth in a cell viability assay.

A704 = assay type: functional, cell-based; settings: Homo sapiens
Description: SANGER: Inhibition of human A704 cell growth in a cell viability assay.

## Nc1ccccc1NC(=O)c1ccc(CNC(=O)OCc2cccnc2)cc1 [ENTINOSTAT]
COLO-829; Homo sapiens, COLO-829
  IC50: 1.54 µM
Calu-6; Homo sapiens, Calu-6
  IC50: > 5 µM
D-263MG; Homo sapiens, D-263MG
  IC50: > 5 µM
DEL; Homo sapiens, DEL
  IC50: 0.375 µM
DJM-1; Homo sapiens, DJM-1
  IC50: 3.6 µM
DMS-114; Homo sapiens, DMS-114
  IC50: > 5 µM
ES6
  IC50: 0.964 µM
ES8; Homo sapiens, ES8
  IC50: 0.36 µM
ETK-1; Homo sapiens, ETK-1
  IC50: 1.79 µM
EW-1; Homo sapiens, EW-1
  IC50: 2.77 µM
EW-18; Homo sapiens, EW-18
  IC50: > 5 µM
GCIY; Homo sapiens, GCIY
  IC50: > 5 µM
HAL-01; Homo sapiens, HAL-01
  IC50: 1.17 µM
IST-MES1; Homo sapiens, IST-MES1
  IC50: 3.18 µM
IST-SL1; Homo sapiens, IST-SL1
  IC50: 0.773 µM
KALS-1; Homo sapiens, KALS-1
  IC50: 0.705 µM
KM12; Homo sapiens, KM12
  IC50: 1.65 µM
KNS-81-FD; Homo sapiens, KNS-81-FD
  IC50: > 5 µM
KS-1
  IC50: 0.881 µM
L-363; Homo sapiens, L-363
  IC50: 0.567 µM
L-428; Homo sapiens, L-428
  IC50: 2.49 µM
LB831-BLC; Homo sapiens, LB831-BLC
  IC50: 1.84 µM
LOX IMVI; Homo sapiens, LOX IMVI
  IC50: 1.93 µM
LS-513; Homo sapiens, LS-513
  IC50: 0.445 µM
MEG-01; Homo sapiens, MEG-01
  IC50: 1.22 µM
MHH-PREB-1; Homo sapiens, MHH-PREB-1
  IC50: 0.607 µM
MZ2-MEL; Homo sapiens, MZ2-MEL
  IC50: > 5 µM
MZ7-mel; Homo sapiens, MZ7-mel
  IC50: 0.561 µM
Mo; Homo sapiens, Mo
  IC50: > 5 µM
NCI-H82; Homo sapiens, NCI-H82
  IC50: 1.63 µM
ONS-76; Homo sapiens, ONS-76
  IC50: 0.582 µM
OVCAR-4; Homo sapiens, OVCAR-4
  IC50: 1.13 µM
QIMR-WIL; Homo sapiens, QIMR-WIL
  IC50: 0.683 µM
RS4-11; Homo sapiens, RS4-11
  IC50: > 5 µM
Ramos-2G6-4C10; Homo sapiens, Ramos-2G6-4C10
  IC50: 0.439 µM
SH-4
  IC50: 1.02 µM
SK-NEP-1; Homo sapiens, SK-NEP-1
  IC50: 1.2 µM
SW684; Homo sapiens, SW684
  IC50: > 5 µM
A101D; Homo sapiens, A101D
  IC50: 0.403 µM
BB65-RCC; Homo sapiens, BB65-RCC
  IC50: 3.98 µM
C2BBe1; Homo sapiens, C2BBe1
  IC50: > 5 µM
C8166; Homo sapiens, C8166
  IC50: > 5 µM
TE-5; Homo sapiens, TE-5
  IC50: 3.21 µM
TE-6; Homo sapiens, TE-6
  IC50: > 5 µM
TGBC1TKB; Homo sapiens, TGBC1TKB
  IC50: > 5 µM
TK-10; Homo sapiens, TK-10
  IC50: 1.83 µM
no-10; Homo sapiens
  IC50: 1.23 µM
COLO-684; Homo sapiens, COLO-684
  IC50: > 5 µM

## CC(C)C[C@@H](C=O)NC(=O)[C@H](CC(C)C)NC(=O)[C@H](CC(C)C)NC(=O)OCc1ccccc1 [MG-132] (Cbz-Leu-Leu-Leu-aldehyde)
COLO-829; colo-829
  IC50: 0.243 µM and > 1 µM
Calu-6; Homo sapiens, Calu-6
  IC50: > 1 µM
Calu-6; calu-6
  IC50: > 1 µM
D-263MG; d-263mg
  IC50: 0.16 µM and > 1 µM
DEL; del
  IC50: > 1 µM
DJM-1; djm-1
  IC50: > 1 µM
DMS-114; dms-114
  IC50: > 1 µM
ES8; es8
  IC50: 0.248 µM and > 1 µM
ETK-1; Homo sapiens, ETK-1
  IC50: > 1 µM
ETK-1; etk-1
  IC50: > 1 µM
EW-1; ew-1
  IC50: 0.21 µM and > 1 µM
EW-18; ew-18
  IC50: > 1 µM
GCIY; gciy
  IC50: > 1 µM
HAL-01; hal-01
  IC50: > 1 µM
IST-MES1; ist-mes1
  IC50: > 1 µM
IST-SL1; ist-sl1
  IC50: 0.201 µM and > 1 µM
KALS-1; kals-1
  IC50: 0.466 µM and > 1 µM
KM12; km12
  IC50: 0.855 µM and > 1 µM
KNS-81-FD; kns-81-fd
  IC50: 0.303 µM and > 1 µM
L-363; Homo sapiens, L-363
  IC50: > 1 µM
L-363; l-363
  IC50: > 1 µM
L-428; Homo sapiens, L-428
  IC50: > 1 µM
L-428; l-428
  IC50: > 1 µM
LB831-BLC; lb831-blc
  IC50: 0.193 µM and 0.476 µM
LOX IMVI; Homo sapiens, LOX IMVI
  IC50: > 1 µM
LOX IMVI; lox imvi
  IC50: > 1 µM
LS-513; ls-513
  IC50: 0.668 µM and > 1 µM
MEG-01; meg-01
  IC50: > 1 µM
MHH-PREB-1; mhh-preb-1
  IC50: > 1 µM
MZ2-MEL; mz2-mel
  IC50: 0.176 µM and > 1 µM
MZ7-mel; mz7-mel
  IC50: 0.264 µM and > 1 µM
Mo; mo
  IC50: 0.518 µM and > 1 µM
NCI-H82; nci-h82
  IC50: > 1 µM
ONS-76; ons-76
  IC50: 0.129 µM and 0.899 µM
OVCAR-4; ovcar-4
  IC50: 0.109 µM and > 1 µM
QIMR-WIL; qimr-wil
  IC50: > 1 µM
RS4-11; rs4-11
  IC50: > 1 µM and 0.956 µM
Ramos-2G6-4C10; Homo sapiens, Ramos-2G6-4C10
  IC50: > 1 µM
Ramos-2G6-4C10; ramos-2g6-4c10
  IC50: > 1 µM
SCC-15; scc-15
  IC50: > 1 µM
SK-NEP-1; sk-nep-1
  IC50: > 1 µM
SW684; sw684
  IC50: > 1 µM
A101D; a101d
  IC50: 0.0328 µM and 0.301 µM
A704
  IC50: 0.487 µM
BB65-RCC; bb65-rcc
  IC50: 0.568 µM and > 1 µM
C2BBe1; c2bbe1
  IC50: 0.279 µM and > 1 µM
C8166; c8166
  IC50: > 1 µM
TE-5; te-5
  IC50: 0.143 µM and > 1 µM
TE-6; te-6
  IC50: > 1 µM
TGBC1TKB; tgbc1tkb
  IC50: > 1 µM and 0.686 µM
TK-10; tk-10
  IC50: 0.254 µM and > 1 µM
no-10
  IC50: 0.0891 µM and 0.608 µM
COLO-684; colo-684
  IC50: 0.907 µM and > 1 µM

## CO[C@@H]1[C@H](N(C)C(=O)c2ccccc2)C[C@H]2O[C@]1(C)n1c3ccccc3c3c4c(c5c6ccccc6n2c5c31)C(=O)NC4 [MIDOSTAURIN]
ETK-1; Homo sapiens, ETK-1
  IC50: 0.377 µM
EW-18; Homo sapiens, EW-18
  IC50: 0.322 µM
KM12; Homo sapiens, KM12
  IC50: 0.0928 µM
SCC-15; Homo sapiens, SCC-15
  IC50: > 0.512 µM
TGBC1TKB; Homo sapiens, TGBC1TKB
  IC50: > 0.512 µM
COLO-684; Homo sapiens, COLO-684
  IC50: > 0.512 µM
